Source: ChEMBL document CHEMBL1134673, “Modeling of poly(ADP-ribose)polymerase (PARP) inhibitors. Docking of ligands and quantitative structure-activity relationship analysis” (J Med Chem, 2001)

Molecular target: not listed separately
Assay: poly(ADP-ribose)-polymerase (PARP) inhibition

Row | IC50 [µM] | Compound
1 | 0.87 | Cc1cccc2c(O)nc(-c3ccccc3)nc12
2 | 0.23 | O=[N+]([O-])c1ccc(-c2nc(O)c3cccc(O)c3n2)cc1
3 | 0.22 | Cc1cccc2c(O)nc(-c3ccc(O)cc3)nc12
4 | 4.2 | COc1cccc2c(O)nc(-c3ccccc3)nc12
5 | 0.27 | Cc1cccc2c(O)nc(-c3ccc(C#N)cc3)nc12
6 | 0.85 | COc1cccc2c(O)nc(-c3ccc([N+](=O)[O-])cc3)nc12
7 | 39 | COc1cccc2c(O)nc(-c3ccc(C(F)(F)F)cc3)nc12
8 | 0.19 | COc1ccc(-c2nc(O)c3cccc(C)c3n2)cc1
9 | 0.52 | Nc1ccc(-c2nc(O)c3cccc(O)c3n2)cc1
10 | 1.34 | COc1cccc2c(O)nc(-c3ccc(C#N)cc3)nc12
11 | 0.44 | Cc1cccc2c(O)nc(-c3ccc(N)cc3)nc12

Molecular target: Poly [ADP-ribose] polymerase 1 (Homo sapiens, UniProt P09874)
Sequence (P09874 whole entry): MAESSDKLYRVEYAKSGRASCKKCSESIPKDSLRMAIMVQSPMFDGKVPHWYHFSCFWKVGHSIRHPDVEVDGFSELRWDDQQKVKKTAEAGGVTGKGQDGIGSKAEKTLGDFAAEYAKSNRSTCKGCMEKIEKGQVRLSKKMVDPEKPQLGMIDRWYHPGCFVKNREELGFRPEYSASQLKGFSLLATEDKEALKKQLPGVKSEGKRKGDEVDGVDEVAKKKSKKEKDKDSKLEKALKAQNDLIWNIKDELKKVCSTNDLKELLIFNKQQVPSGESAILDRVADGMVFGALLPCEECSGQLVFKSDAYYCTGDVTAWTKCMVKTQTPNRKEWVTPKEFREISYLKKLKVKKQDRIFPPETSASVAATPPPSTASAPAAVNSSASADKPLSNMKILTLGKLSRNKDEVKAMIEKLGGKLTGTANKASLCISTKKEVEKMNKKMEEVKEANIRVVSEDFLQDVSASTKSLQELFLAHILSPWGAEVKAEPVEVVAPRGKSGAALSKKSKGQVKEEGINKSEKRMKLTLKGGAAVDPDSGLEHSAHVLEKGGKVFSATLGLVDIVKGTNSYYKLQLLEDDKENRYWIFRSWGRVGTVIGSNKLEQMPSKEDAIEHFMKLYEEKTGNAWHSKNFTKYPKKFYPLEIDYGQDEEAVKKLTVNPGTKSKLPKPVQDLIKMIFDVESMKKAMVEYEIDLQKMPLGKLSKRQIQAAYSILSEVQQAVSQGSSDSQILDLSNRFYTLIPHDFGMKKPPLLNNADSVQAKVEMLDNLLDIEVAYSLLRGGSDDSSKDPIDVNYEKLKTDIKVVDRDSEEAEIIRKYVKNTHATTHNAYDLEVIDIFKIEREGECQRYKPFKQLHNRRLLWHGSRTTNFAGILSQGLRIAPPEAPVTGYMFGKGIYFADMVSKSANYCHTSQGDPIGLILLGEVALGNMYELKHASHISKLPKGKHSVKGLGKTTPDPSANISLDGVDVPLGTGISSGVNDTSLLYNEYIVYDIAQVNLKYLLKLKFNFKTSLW
Description: The compound was tested for poly(ADP-ribose)-polymerase (PARP) inhibition

Row | IC50 [µM] | Compound
12 | 120 | CN(C)c1cccc(C(N)=O)c1
13 | 9.1 | NC(=O)c1cccc(O)c1
14 | 160 | NC(=O)c1cccc([N+](=O)[O-])c1
15 | 22 | NC(=O)c1ccccc1 [BENZAMIDE]
16 | 19 | Cc1cccc(C(N)=O)c1
17 | 280 | NC(=O)c1ccc(O)cc1
18 | 300 | NC(=O)c1ccc(Cl)cc1
19 | 2200 | NC(=O)c1ccc(Br)cc1
20 | 20 | NC(=O)c1cccc(F)c1
21 | 200 | NC(=O)c1ccc(F)cc1

Continued, compound first:

Row | Compound | IC50 [µM]
22 | O=c1[nH]cnc2ccccc12 [QUINAZOLINONE] | 9.5
23 | NC(=O)c1ccc(N)cc1 | 1800
24 | O=c1[nH]c2ccccc2c2ccccc12 | 0.3
25 | O=c1[nH]c2ccc([N+](=O)[O-])cc2c2ccccc12 | 0.35
26 | O=c1[nH]ncc2ccccc12 [PHTHALAZINONE] | 12
